Assay results as given in BigSolDB 2.1.

Oc1ccc(/C=C/c2cc(O)cc(O)c2)cc1
solubility (mole fraction)
Settings | 273.2 K | 283.2 K | 293.2 K | 303.2 K | 313.2 K | 323.2 K
in acetone | 0.0846 | 0.0858 | 0.0871 | 0.0877 | 0.0886 | –
in ethanol | 0.0101 | 0.0127 | 0.0156 | 0.0182 | 0.0208 | 0.0236
in water | – | – | 2.9e-06 | 4.57e-06 | 6.46e-06 | 9.3e-06
